Measurements taken from US20260258064A1 (SIRONAX LTD., priority 2023, published 2026).

molecular target: T1, SARM1 (50-724) (Homo sapiens, UniProt Q6SZW1); assay: SARM1 (50-724) enzymatic assay (LC-MS/MS); format: biochemical; conditions: Purified SARM1 (50-724) 2 nM, NMN as activator, NAD+ as substrate, 1 h at room temperature, read-out: IC50 (SARM1 inhibitory activity)
T1 construct: Purified SARM1 (50-724) with a final concentration of 2 nM was pre-incubated with a test compound
T1 sequence (Q6SZW1 50-724): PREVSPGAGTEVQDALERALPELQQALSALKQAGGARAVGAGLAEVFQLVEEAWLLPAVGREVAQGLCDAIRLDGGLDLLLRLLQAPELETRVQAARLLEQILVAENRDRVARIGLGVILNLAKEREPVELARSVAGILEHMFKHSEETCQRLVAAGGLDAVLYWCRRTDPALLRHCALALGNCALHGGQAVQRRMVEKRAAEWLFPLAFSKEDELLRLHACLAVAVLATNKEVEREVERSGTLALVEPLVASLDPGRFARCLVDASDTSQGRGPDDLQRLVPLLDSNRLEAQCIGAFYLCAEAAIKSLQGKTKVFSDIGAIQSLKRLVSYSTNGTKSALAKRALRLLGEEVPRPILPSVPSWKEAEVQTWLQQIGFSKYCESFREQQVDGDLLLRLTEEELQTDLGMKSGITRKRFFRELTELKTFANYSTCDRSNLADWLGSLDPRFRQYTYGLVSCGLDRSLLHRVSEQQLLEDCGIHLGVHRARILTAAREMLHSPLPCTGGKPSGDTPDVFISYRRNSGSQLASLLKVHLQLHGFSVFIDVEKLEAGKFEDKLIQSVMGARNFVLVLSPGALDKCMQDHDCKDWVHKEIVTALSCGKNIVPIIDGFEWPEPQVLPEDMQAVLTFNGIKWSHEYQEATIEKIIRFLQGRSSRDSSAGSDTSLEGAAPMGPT
Method: An enzymatic assay was performed in a 384-well plate using Dulbecco's phosphate-buffered saline (PBS) as the reaction buffer. Purified SARM1 (50-724) with a final concentration of 2 nM was pre-incubated with a test compound at […] final assay concentration for 15 min at room temperature. The reaction was initiated by adding a mixture of […] nicotinamide mononucleotide (NMN) as activator and […] NAD^+ as substrate. After 1 h of incubation at room temperature, the reaction was terminated with 10 times volume of 70% acetonitrile, and then centrifuged at 3800 rpm for 10 min. The samples were analyzed using LC-MS/MS after diluted to a proper concentration by 10 mM ammonium acetate (pH 9.75).
In Table 2, activity is provided as follows: A: IC50≤100 nM; B: 100 nM<IC50≤500 nM; C: 500 nM<IC50≤1000 nM; D: IC50>1000 nM.

Row | SMILES | IC50 [nM]
1 | Cc1cnc2[nH]c(-c3nncn3-c3cccc(F)c3Cl)nc2n1 [Compound 176, 2-(4-(2-chloro-3-fluorophenyl)-4H-1,2,4-triazol-3-yl)-6-methyl-1H-imidazo[4,5-b]pyrazine] | > 1000
2 | O=C1CN(c2nc3cc(C(F)(F)F)ccc3[nH]2)C(c2ccccc2)CN1 (centres unmarked) [Compound 368, 5-phenyl-4-(5-(trifluoromethyl)-1H-benzo[d]imidazol-2-yl)piperazin-2-one] | > 1000
3 | CS(=O)(=O)c1c(Br)ccc2[nH]c(-c3nncn3-c3cccc(Cl)c3Cl)nc12 [Example 95, 5-bromo-2-(4-(2,3-dichlorophenyl)-4H-1,2,4-triazol-3-yl)-4-(methylsulfonyl)-1H-benzo[d]imidazole] | > 1000
4 | Fc1cc(N2CCC2)cc2nc(-c3nncn3-c3cnccc3C(F)(F)F)[nH]c12 [Compound 301, 5-(azetidin-1-yl)-7-fluoro-2-(4-(4-(trifluoromethyl)pyridin-3-yl)-4H-1,2,4-triazol-3-yl)-1H-benzo[d]imidazole] | 100 to 500
5 | Cn1cc(-c2cnccc2C(F)(F)F)c(-c2nc3c(Cl)c(Cl)ccc3[nH]2)cc1=O [Compound 393, 4-(4,5-dichloro-1H-benzo[d]imidazol-2-yl)-1-methyl-4′-(trifluoromethyl)-[3,3′-bipyridin]-6(1H)-one] | 500 to 1000
6 | FC(F)(F)c1ccc2[nH]c(-c3cnncc3-c3cccc(Cl)c3Cl)nc2c1 [Example 44] | 100 to 500
7 | Cn1ncc(-c2cccc(Cl)c2Cl)c1-c1nc2cc(C(F)(F)F)ccc2[nH]1 [Example 39] | > 1000
8 | Fc1cc(N2CCC(F)(F)C2)cc2nc(-c3nncn3-c3cnccc3C(F)(F)F)[nH]c12 [Compound 326, 5-(3,3-difluoropyrrolidin-1-yl)-7-fluoro-2-(4-(4-(trifluoromethyl)pyridin-3-yl)-4H-1,2,4-triazol-3-yl)-1H-benzo[d]imidazole] | 100 to 500
9 | FC(F)(F)c1ccc2[nH]c(-c3n[nH]cc3-c3cccc(Cl)c3Cl)nc2c1 [Example 43] | 500 to 1000
10 | Cc1ccc2[nH]c(-c3ncccc3C3CCCC3)nc2c1 [Compound 7, 2-(3-cyclopentylpyridin-2-yl)-5-methyl-1H-benzo[d]imidazole] | > 1000
11 | CS(=O)(=O)c1ccc2[nH]c(-c3nncn3-c3cccc(Cl)c3Cl)nc2c1 [Example 46, 2-(4-(2,3-dichlorophenyl)-4H-1,2,4-triazol-3-yl)-5-(methylsulfonyl)-1H-benzo[d]imidazole] | 100 to 500
12 | FC(F)(F)c1ccncc1-n1cnnc1-c1nc2cc(C34COC(C3)C4)ccc2[nH]1 [Compound 362, 5-(2-oxabicyclo[2.1.1]hexan-4-yl)-2-[4-[4-(trifluoromethyl)-3-pyridyl]-1,2,4-triazol-3-yl]-1H-benzimidazole] | 100 to 500

Further lines, results first:

Row | IC50 [nM] | SMILES
13 | 100 to 500 | CN(c1ccc2[nH]c(-c3nncn3-c3cnccc3C(F)(F)F)nc2c1)S(C)(=O)=O [Compound 341, N-methyl-N-[2-[4-[4-(trifluoromethyl)-3-pyridyl]-1,2,4-triazol-3-yl]-1H-benzimidazol-5-yl]methanesulfonamide]
14 | ≤ 100 | CN(CCC(N)=O)c1cc(F)c2[nH]c(-c3nncn3-c3cnccc3C(F)(F)F)nc2c1 [Compound 450, 3-((4-fluoro-2-(4-(4-(trifluoromethyl)pyridin-3-yl)-4H-1,2,4-triazol-3-yl)-1H-benzo[d]imidazol-6-yl)(methyl)amino)propanamide]
15 | ≤ 100 | Fc1cc(C2CC2COC(F)F)cc2nc(-c3nncn3-c3cnccc3C(F)(F)F)[nH]c12 (centres unmarked) [Compound 440, 5-(2-((difluoromethoxy)methyl)cyclopropyl)-7-fluoro-2-(4-(4-(trifluoromethyl)-pyridin-3-yl)-4H-1,2,4-triazol-3-yl)-1H-benzo[d]imidazole]
16 | ≤ 100 | FC(F)(F)Oc1ccc(Oc2ncco2)cc1-n1cnnc1-c1nc2cc(C(F)(F)F)ccc2[nH]1 [Compound 281, 2-(4-(trifluoromethoxy)-3-(3-(5-(trifluoromethyl)-1H-benzo[d]imidazol-2-yl)-4H-1,2,4-triazol-4-yl)phenoxy)oxazole]
17 | ≤ 100 | Fc1cc(C(F)(F)F)cc2nc(-c3nncnc3-c3cnccc3C(F)(F)F)[nH]c12 [Compound 336, 7-fluoro-5-(trifluoromethyl)-2-(5-(4-(trifluoromethyl)pyridin-3-yl)-1,2,4-triazin-6-yl)-1H-benzo[d]imidazole]
18 | 100 to 500 | Cn1nc(Cl)c(Cl)c1-n1cnnc1-c1nc2cc(C(F)(F)F)ccc2[nH]1 [Example 63]
19 | ≤ 100 | FC(F)(F)c1cnc2[nH]c(-c3nncn3-c3cnccc3C(F)(F)F)cc2n1 [Compound 356, 2-(trifluoromethyl)-6-(4-(4-(trifluoromethyl)pyridin-3-yl)-4H-1,2,4-triazol-3-yl)-5H-pyrrolo[2,3-b]pyrazine]
20 | ≤ 100 | CCS(=O)(=O)Cc1nnc(-c2nc3cc(Cl)cc(F)c3[nH]2)n1-c1cccc(F)c1Cl [Compound 193, 5-chloro-2-(4-(2-chloro-3-fluorophenyl)-5-((ethylsulfonyl)methyl)-4H-1,2,4-triazol-3-yl)-7-fluoro-1H-benzo[d]imidazole]
21 | ≤ 100 | OCCc1cccc(OC(F)(F)F)c1-n1cnnc1-c1nc2cc(C(F)(F)F)ccc2[nH]1 [Compound 295, 2-(3-(trifluoromethoxy)-2-(3-(5-(trifluoromethyl)-1H-benzo[d]imidazol-2-yl)-4H-1,2,4-triazol-4-yl)phenyl)ethan-1-ol]
22 | ≤ 100 | CC(C)(O)c1ccc2[nH]c(-c3nncn3-c3cccc(Cl)c3Cl)nc2c1 [Example 96, 2-(2-(4-(2,3-dichlorophenyl)-4H-1,2,4-triazol-3-yl)-1H-benzo[d]imidazol-5-yl)propan-2-ol]
23 | ≤ 100 | CN(C)c1ccncc1-n1cnnc1-c1nc2cc(C(F)(F)F)ccc2[nH]1 [Compound 245, N,N-dimethyl-3-(3-(5-(trifluoromethyl)-1H-benzo[d]imidazol-2-yl)-4H-1,2,4-triazol-4-yl)pyridin-4-amine]
24 | ≤ 100 | CCC(c1ccc2[nH]c(-c3nncn3-c3ccncc3OC(F)(F)F)nc2c1)C(F)F (centres unmarked) [Compound 238, 5-(1,1-difluorobutan-2-yl)-2-(4-(3-(trifluoromethoxy)pyridin-4-yl)-4H-1,2,4-triazol-3-yl)-1H-benzo[d]imidazole]
25 | ≤ 100 | FC(F)c1ccncc1-n1cnnc1-c1nc2cc(C(F)(F)F)ccc2[nH]1 [Compound 252, 2-(4-(4-(difluoromethyl)pyridin-3-yl)-4H-1,2,4-triazol-3-yl)-5-(trifluoromethyl)-1H-benzo[d]imidazole]
26 | ≤ 100 | Cc1nsc(Cl)c1-n1cnnc1-c1nc2cc(C(F)(F)F)ccc2[nH]1 [Example 118]
27 | ≤ 100 | CN(c1cc(F)c2[nH]c(-c3nncn3-c3cnccc3C(F)(F)F)nc2c1)c1nccs1 [Compound 417, N-(7-fluoro-2-(4-(4-(trifluoromethyl)pyridin-3-yl)-4H-1,2,4-triazol-3-yl)-1H-benzo[d]imidazol-5-yl)-N-methylthiazol-2-amine]
28 | ≤ 100 | NC(=O)COc1ccc(OC(F)(F)F)c(-n2cnnc2-c2nc3cc(C(F)(F)F)ccc3[nH]2)c1 [Compound 249, 2-(4-(trifluoromethoxy)-3-(3-(5-(trifluoromethyl)-1H-benzo[d]imidazol-2-yl)-4H-1,2,4-triazol-4-yl)phenoxy)acetamide]
29 | ≤ 100 | Cc1cncc(-n2cnnc2-c2nc3cc(C(F)(F)F)ccc3[nH]2)c1Cl [Example 123]
